Assay results from US20240270762A1, “PENICILLIN-BINDING PROTEIN INHIBITORS” (priority 2021, published 2024).
Values after ≈ are worked out from the molar mass of the structure shown.

Key:
[1] = target: T1, PBP3 from Pseudomonas aeruginosa (PAO1) (Pseudomonas aeruginosa, UniProt G3XD46); test: Bocillin-FL fluorescence polarization competition binding, P. aeruginosa PBP3; settings: Binding affinity to P. aeruginosa PBP3; fluorescence polarization competition binding assay using Bocillin-FL; read-out: P. aeruginosa PBP3 Potency
T1 construct: made in house
In short: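 Purified PBP was preincubated with inhibitor (E. coli PBP3 1.5 μM, 30 min; P. aeruginosa PBP3 0.75 μM, A. baumannii PBP3 0.2 μM and PBP1a 1 μM, 15 min), then Bocillin-FL (0.1 μM; 0.05 μM for PBP1a) added and FP read up to 60 min. EC50 = 50% loss of bound probe.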

E. coli AG100 = test: microbe, parasite or virus in culture; type: cell-based; settings: Escherichia coli, AG100, read-out: MIC E. coli AG100
K. pneumoniae 848844 = test: microbe, parasite or virus in culture; type: cell-based; settings: Klebsiella pneumoniae, 848844, read-out: MIC K. pneumoniae 848844
P. aeruginosa ATCC 27853 = test: microbe, parasite or virus in culture; type: cell-based; settings: Pseudomonas aeruginosa, ATCC27853, read-out: MIC P. aeruginosa ATCC 27853
[2] = tested on: P. aeruginosa (ΔmexAB-oprM); test: Broth microdilution MIC in CAMHB; type: cell-based; settings: Pseudomonas aeruginosa; read-out: MIC P. aeruginosa ΔmexAB-oprM
N. gonorrhoeae FA1090 = test: Liquid broth MIC in Fastidious broth; settings: Neisseria gonorrhoeae, FA1090, read-out: Minimum Inhibitory Concentration (MIC), N. gonorrhoeae FA 1090
N. gonorrhoeae WHO G = test: Liquid broth MIC in Fastidious broth; settings: Neisseria gonorrhoeae, read-out: Minimum Inhibitory Concentration (MIC), N. gonorrhoeae WHO G
N. gonorrhoeae WHO X = test: Liquid broth MIC in Fastidious broth; settings: Neisseria gonorrhoeae, read-out: Minimum Inhibitory Concentration (MIC), N. gonorrhoeae WHO X

T1 sequence (G3XD46 whole entry): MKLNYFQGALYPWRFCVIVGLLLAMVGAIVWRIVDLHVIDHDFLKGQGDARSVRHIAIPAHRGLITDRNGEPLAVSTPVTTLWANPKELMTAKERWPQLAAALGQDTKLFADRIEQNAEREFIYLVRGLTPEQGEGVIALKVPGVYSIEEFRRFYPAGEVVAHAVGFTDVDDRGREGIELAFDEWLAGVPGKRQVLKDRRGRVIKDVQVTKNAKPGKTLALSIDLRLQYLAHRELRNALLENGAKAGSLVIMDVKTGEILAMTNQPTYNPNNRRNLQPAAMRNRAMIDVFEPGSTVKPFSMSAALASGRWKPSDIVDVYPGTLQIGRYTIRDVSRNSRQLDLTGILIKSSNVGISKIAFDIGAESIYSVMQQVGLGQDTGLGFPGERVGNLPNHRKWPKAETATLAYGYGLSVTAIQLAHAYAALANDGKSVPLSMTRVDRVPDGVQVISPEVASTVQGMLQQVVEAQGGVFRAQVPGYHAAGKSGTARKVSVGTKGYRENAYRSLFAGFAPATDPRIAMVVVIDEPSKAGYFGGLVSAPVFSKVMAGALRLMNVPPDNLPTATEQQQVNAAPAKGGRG

Compound: O=C(O)c1cccc2c1OB(O)[C@@H](NC(=O)[C@H](NC(=O)c1cnc3sccn3c1=O)c1ccc(P(=O)(O)O)cc1)C2 (single isomer, unassigned) [Example 195]
- IC50 [1]: < 10 µM
- MIC (E. coli AG100): > 128 µg/mL
- MIC (K. pneumoniae 848844): > 128 µg/mL
- MIC (P. aeruginosa ATCC 27853): 32 to 64 µg/mL (≈ 53.5 to 107 µM)
- MIC [2]: 8 to 16 µg/mL (≈ 13.4 to 26.7 µM)
- MIC (N. gonorrhoeae FA1090): < 1 µg/mL
- MIC (N. gonorrhoeae WHO G): 1 to 2 µg/mL (≈ 1.67 to 3.34 µM)
- MIC (N. gonorrhoeae WHO X): 16 to 32 µg/mL (≈ 26.7 to 53.5 µM)

Compound: CC(=O)N1CCC[C@@H]1C(=O)N[C@H](C(=O)N[C@H]1Cc2cccc(C(=O)O)c2OB1O)c1ccc(P(=O)(O)O)cc1 [Example 33, (3R)-3-(2-((R)-1-acetylpyrrolidine-2-carboxamido)-2-(4-phosphonophenyl)acetamido)-2-hydroxy-3,4-dihydro-2H-benzo[e][1,2]oxaborinine-8-carboxylic acid]
- IC50 [1]: 10 to 50 µM
- MIC (E. coli AG100): > 128 µg/mL
- MIC (K. pneumoniae 848844): > 128 µg/mL
- MIC (P. aeruginosa ATCC 27853): > 128 µg/mL
- MIC [2]: > 128 µg/mL
- MIC (N. gonorrhoeae FA1090): 4 to 8 µg/mL (≈ 7.15 to 14.3 µM)
- MIC (N. gonorrhoeae WHO G): 16 to 32 µg/mL (≈ 28.6 to 57.2 µM)
- MIC (N. gonorrhoeae WHO X): 16 to 32 µg/mL (≈ 28.6 to 57.2 µM)

Compound: O=C(O)c1cccc2c1OB(O)[C@@H](NC(=O)[C@H](NC(=O)c1cccn(C(F)F)c1=O)c1ccc(P(=O)(O)O)cc1)C2 (single isomer, unassigned) [Example 191]
- IC50 [1]: < 10 µM
- MIC (E. coli AG100): > 128 µg/mL
- MIC (K. pneumoniae 848844): > 128 µg/mL
- MIC (P. aeruginosa ATCC 27853): > 128 µg/mL
- MIC [2]: 8 to 16 µg/mL (≈ 13.5 to 27.1 µM)
- MIC (N. gonorrhoeae FA1090): < 1 µg/mL
- MIC (N. gonorrhoeae WHO G): < 1 µg/mL
- MIC (N. gonorrhoeae WHO X): 16 to 32 µg/mL (≈ 27.1 to 54.1 µM)

Compound: Cn1cccc(C(=O)N[C@H](C(=O)N[C@H]2Cc3cccc(C(=O)O)c3OB2O)c2ccc(P(=O)(O)O)cc2)c1=O (single isomer, unassigned) [Example 181]
- IC50 [1]: 50 to 250 µM
- MIC (E. coli AG100): > 128 µg/mL
- MIC (K. pneumoniae 848844): > 128 µg/mL
- MIC (P. aeruginosa ATCC 27853): > 128 µg/mL
- MIC [2]: > 128 µg/mL
- MIC (N. gonorrhoeae FA1090): 1 to 2 µg/mL (≈ 1.8 to 3.6 µM)
- MIC (N. gonorrhoeae WHO G): 4 to 8 µg/mL (≈ 7.2 to 14.4 µM)
- MIC (N. gonorrhoeae WHO X): 16 to 32 µg/mL (≈ 28.8 to 57.6 µM)

Compound: N#Cc1ccnc(C(=O)NC(C(=O)N[C@H]2Cc3cccc(C(=O)O)c3OB2O)c2ccc(P(=O)(O)O)cc2)c1 (stereo partly drawn) [Example 179, (3R)-3-(2-(4-cyanopicolinamido)-2-(4-phosphonophenyl)acetamido)-2-hydroxy-3,4-dihydro-2H-benzo[e][1,2]oxaborinine-8-carboxylic acid]
- IC50 [1]: < 10 µM
- MIC (E. coli AG100): > 128 µg/mL
- MIC (K. pneumoniae 848844): > 128 µg/mL
- MIC (P. aeruginosa ATCC 27853): > 128 µg/mL
- MIC [2]: > 128 µg/mL
- MIC (N. gonorrhoeae FA1090): 1 to 2 µg/mL (≈ 1.82 to 3.63 µM)
- MIC (N. gonorrhoeae WHO G): 16 to 32 µg/mL (≈ 29.1 to 58.2 µM)
- MIC (N. gonorrhoeae WHO X): 16 to 32 µg/mL (≈ 29.1 to 58.2 µM)

Compound: O=C(O)c1cccc2c1OB(O)[C@@H](NC(=O)[C@H](NC(=O)N1CCCCC1=O)c1ccc(P(=O)(O)O)cc1)C2 [Example 37, (R)-2-hydroxy-3-((R)-2-(2-oxopiperidine-1-carboxamido)-2-(4-phosphonophenyl)acetamido)-3,4-dihydro-2H-benzo[e][1,2]oxaborinine-8-carboxylic acid]
- IC50 [1]: < 10 µM
- MIC (E. coli AG100): > 128 µg/mL
- MIC (K. pneumoniae 848844): > 128 µg/mL
- MIC (P. aeruginosa ATCC 27853): > 128 µg/mL
- MIC [2]: 8 to 16 µg/mL (≈ 14.7 to 29.3 µM)
- MIC (N. gonorrhoeae FA1090): < 1 µg/mL
- MIC (N. gonorrhoeae WHO G): < 1 µg/mL
- MIC (N. gonorrhoeae WHO X): 16 to 32 µg/mL (≈ 29.3 to 58.7 µM)

Compound: NS(=O)(=O)NC(C(=O)N[C@H]1Cc2cccc(C(=O)O)c2OB1O)c1ccc(P(=O)(O)O)cc1 (stereo partly drawn) [Example 58, (3R)-2-hydroxy-3-(2-(4-phosphonophenyl)-2-(sulfamoylamino)acetamido)-3,4-dihydro-2H-benzo[e][1,2]oxaborinine-8-carboxylic acid]
- IC50 [1]: > 250 µM
- MIC (E. coli AG100): > 128 µg/mL
- MIC (K. pneumoniae 848844): > 128 µg/mL
- MIC (P. aeruginosa ATCC 27853): > 128 µg/mL
- MIC [2]: > 128 µg/mL
- MIC (N. gonorrhoeae FA1090): 16 to 32 µg/mL (≈ 32.1 to 64.1 µM)
- MIC (N. gonorrhoeae WHO G): 16 to 32 µg/mL (≈ 32.1 to 64.1 µM)
- MIC (N. gonorrhoeae WHO X): 16 to 32 µg/mL (≈ 32.1 to 64.1 µM)

Compound: O=C(O)c1cccc2c1OB(O)[C@@H](NC(=O)C(NS(=O)(=O)C1CC1)c1ccc(P(=O)(O)O)cc1)C2 (stereo partly drawn) [Example 61, (3R)-3-(2-(cyclopropanesulfonamido)-2-(4-phosphonophenyl)acetamido)-2-hydroxy-3,4-dihydro-2H-benzo[e][1,2]oxaborinine-8-carboxylic acid]
- IC50 [1]: 10 to 50 µM
- MIC (E. coli AG100): > 128 µg/mL
- MIC (K. pneumoniae 848844): > 128 µg/mL
- MIC (P. aeruginosa ATCC 27853): > 128 µg/mL
- MIC [2]: > 128 µg/mL
- MIC (N. gonorrhoeae FA1090): 16 to 32 µg/mL (≈ 30.5 to 61 µM)
- MIC (N. gonorrhoeae WHO G): 16 to 32 µg/mL (≈ 30.5 to 61 µM)
- MIC (N. gonorrhoeae WHO X): 16 to 32 µg/mL (≈ 30.5 to 61 µM)
